Key:
Mycosphaerella fijiensis = assay: Sensitivity test of ascospores (germination, germ tube elongation) to azoxystrobin +/- EPAC-F; assay type: cell-based; conditions: Black Sigatoka, banana crops
Procedure: In a study in experimental conditions the effectiveness of EPAC-F was evaluated by a sensitivity test to Mycosphaerella fijiensis (from a banana farm in Santa Marta), causal agent of Black Sigatoka, following the recommendations of the Fungicide Resistance Action Committee's (FRAC) to strobilurin fungicides from.
The test is based on measuring the length elongation ascospore germ tube that germinated in culture medium 2% agar, modified with a number of products made by mixing the adjuvant, EPAC-F and fungicide Liege 25 SC, whose active ingredient is Azoxystrobin 250 g/L. Then the following 11 treatments were evaluated are as follows:
T1. Azoxystrobin 25% SC 100 at a dose of 400 cc/Ha. T2. Azoxystrobin 25 SC 50% at doses of 400 cc/Ha.+EPAC 10% T3. Azoxystrobin 25 SC 50% at doses of 400 cc/Ha.+EPAC 20% T4. Azoxystrobin 25 SC 70% at doses of 400 cc/Ha.+EPAC 10% T5. Azoxystrobin 25 SC 60% at doses of 400 cc/Ha.+EPAC 10% T1A. Azoxystrobin SC 25 50% at doses of 200 cc/Ha.+EPAC5% T2A. Azoxystrobin SC 25 50% at doses of 200 cc/Ha.+10% EPAC T3A. Azoxystrobin SC 25 50% at doses of 200 cc/Ha.+15% EPAC T4A. Azoxystrobin SC 25 25% at doses of 200 cc/Ha.+10% EPAC T5A. Azoxystrobin SC 25 25% at doses of 200 cc/Ha.+15% EPAC
The control process involved the use of fungicide Amystar 50 WG with the active ingredient Azoxystrobin 500 g/L. This product is considered direct competition from […]. […]

[1] = test system: Cortadera (Cortaderia Selloana); assay: Field trial glyphosate +/- EPAC, weed control in rice; assay type: in vivo; conditions: A = 100% alone, B = reduced dose + EPAC
[2] = test system: Guardarocio (Digitaria Sanguinalis); assay: as above; assay type: in vivo; conditions: A = 100% alone, B = reduced dose + EPAC
[3] = test system: Piñita (Murdania Nudiflora); assay: as above; assay type: in vivo; conditions: A = chemical alone at 100%, B = reduced dose + EPAC
Leptocloa = assay: as above; assay type: in vivo; conditions: A = 100% alone, B = reduced dose + EPAC
[4] = test system: Liendrepuerco (Echinochia Colonum); assay: as above; assay type: in vivo; conditions: A = 100% alone, B = reduced dose + EPAC
White Fly (Aleyrodidae) [5] = assay: Field trial cypermethrin +/- EPAC, pest control in tomato crops; assay type: in vivo
[6] = test system: Paja de Zorro (Leptochloa filiformis); assay: Field trial clomazone +/- EPAC, weed control in rice fields; assay type: in vivo
Bledo (Amaranthus Albus) = assay: Field trial oxadiazone +/- EPAC, weed control in rice fields; assay type: in vivo
[7] = test system: Coquito (Cyperus rotundus); assay: Field trial atrazine +/- EPAC, weed control in corn; assay type: in vivo
Corn = assay: Field trial paraquat +/- EPAC, crop dissecation; assay type: in vivo; conditions: A = 100% alone, B = 40% + EPAC 4%
[8] = test system: adult T. vaporariorum; White Fly (Aleyrodidae); assay: Methamidophos/EPAC-I on adult whitefly on tomato; assay type: in vivo, Trialeurodes vaporariorum; parameters: concentration or dose not given beside the values; conditions: tomato crops
Procedure: The effectiveness of EPAC-I was assessed with adult T. vaporariorum under experimental conditions taking into account the percentage of mortality by direct and indirect contact with the insects.
The completion of the performance test EPAC-I with adults of T. vaporariorum was carried out directly on whitefly adults collected from breeding individuals in the “Bio-Systems Center”. These were placed in a box with mesh which allows passage of the droplets in the spray. Product application was performed with an airbrush at a distance of 30 cm and a 45° angle on the application unit, achieving a uniform coverage with fine droplets. The quality was verified through application of a strip (2×2 cm) of water-sensitive paper.
To assemble the test, from tomato plants we selected randomly 5 leaflets per treatment and then were sprayed and once dried, in each bags mesh were placed into which 10 adults whiteflies were placed, and each of these units was duly marked according to the assessed treatment. Tomato plants with the evaluation units were maintained in a room with controlled temperature (20±1° C.), relative humidity (70±10%) and photoperiod of 12 h. The evaluation design was completely randomized and readings from day one after application to day 10 were performed.

Coffe Borer Beetle = assay: Field trial chlorpyrifos +/- EPAC, pest control in coffee fields; assay type: in vivo
White Fly (Aleyrodidae) [9] = assay: Field trial profenophos +/- EPAC, pest control in tomato crops; assay type: in vivo
[10] = test system: Falsa Caminadora (Ischaemum rugosum); assay: Field trial pendimethalin +/- EPAC, weed control in rice fields; assay type: in vivo
[11] = test system: Paja de Zorro (Leptochloa filiformis); assay: Field trial butachlor +/- EPAC, weed control; assay type: in vivo; conditions: butachlor section

## CO/C=C(\C(=O)OC)c1ccccc1Oc1cc(Oc2ccccc2C#N)ncn1 [Axozystrobin]
Mycosphaerella fijiensis
  Fungus Inhibition: % Ascospore Germination Inhibited: 24%
  Fungus Inhibition: % Ascospore elongation Inhibition (>150 microm): 37%

## O=C(O)CNCP(=O)(O)O [Glyphosate, N-phosphonomethyl-glycine]
[1]
  % of Weeds Controlled: 90%
[2]
  % of Weeds Controlled: 82%
[3]
  % of Weeds Controlled: 83%
Leptocloa
  % of Weeds Controlled: 100%
[4]
  % of Weeds Controlled: 93%

## CC1(C)C(C=C(Cl)Cl)C1C(=O)OC(C#N)c1cccc(Oc2ccccc2)c1 (stereo not shown) [Cypermethrin]
White Fly (Aleyrodidae) [5]; 3 Days
  % of Pest Controlled: 90%
White Fly (Aleyrodidae) [5]; 8 Days
  % of Pest Controlled: 87%
White Fly (Aleyrodidae) [5]; 15 Days
  % of Pest Controlled: 76%

## CC1(C)CON(Cc2ccccc2Cl)C1=O [Clomazone]
[6]; 3 Days
  % of Weeds Controlled: 97%
[6]; 8 Days
  % of Weeds Controlled: 93%
[6]; 15 Days
  % of Weeds Controlled: 100%

## CC(C)Oc1cc(-n2nc(C(C)(C)C)oc2=O)c(Cl)cc1Cl [Oxadiazone]
Bledo (Amaranthus Albus); 3 Days
  % of Weeds Controlled: 87%
Bledo (Amaranthus Albus); 8 Days
  % of Weeds Controlled: 97%
Bledo (Amaranthus Albus); 15 Days
  % of Weeds Controlled: 100%

## CCNc1nc(Cl)nc(NC(C)C)n1 [Atrazine]
[7]; 7 Days
  % of Weeds Controlled: 93%
[7]; 14 Days
  % of Weeds Controlled: 90%
[7]; 21 Days
  % of Weeds Controlled: 90%

## C[n+]1ccc(-c2cc[n+](C)cc2)cc1 [Paraquat]
Corn
  % of Crop Dissecated: 100%

## COP(N)(=O)SC (stereo not shown) [Metamidhophos, O, S-dimethyl-phosphoramidothioate]
[8]; 1 Day
  % of Pest Controlled: 10%
[8]; 4 Days
  % of Pest Controlled: 30%
[8]; 6 Days
  % of Pest Controlled: 42%
[8]; 8 Days
  % of Pest Controlled: 46%
[8]; 10 Days
  % of Pest Controlled: 50%

## CCOP(=S)(OCC)Oc1nc(Cl)c(Cl)cc1Cl [Chlorpyrifos]
Coffe Borer Beetle; 7 Days
  % of Pest Controlled: 88%
Coffe Borer Beetle; 14 Days
  % of Pest Controlled: 83%
Coffe Borer Beetle; 21 Days
  % of Pest Controlled: 73%

## CCCSP(=O)(OCC)Oc1ccc(Br)cc1Cl (stereo not shown) [Profenophos]
White Fly (Aleyrodidae) [9]; 7 Days
  % of Pest Controlled: 92%
White Fly (Aleyrodidae) [9]; 12 Days
  % of Pest Controlled: 82%
White Fly (Aleyrodidae) [9]; 15 Days
  % of Pest Controlled: 75%

## CCC(CC)Nc1c([N+](=O)[O-])cc(C)c(C)c1[N+](=O)[O-] [Pendimenthaline]
[10]; 3 Days
  % of Weeds Controlled: 86.7%
[10]; 8 Days
  % of Weeds Controlled: 96.7%
[10]; 15 Days
  % of Weeds Controlled: 93%

## CCCCOCN(C(=O)CCl)c1c(CC)cccc1CC [Butachlor]
[11]; 3 Days
  % of Weeds Controlled: 93%
[11]; 8 Days
  % of Weeds Controlled: 100%
[11]; 15 Days
  % of Weeds Controlled: 100%
